Data taken from patent publication US10676519B2, “Chimeric proteins and their use in identifying anti-deubiquitinase compounds” (The Florida State University Research Foundation, Inc., priority 2017, dated 2020).

Columns and labels:
[1] = tested on: counterscreen strain (yeast with UBP6 intact); assay: DMSO tolerance of the counterscreen yeast strain, growth in microtiter plates; assay type: cell-based, Saccharomyces cerevisiae; settings: counterscreen strain (FIG. 4B); concentrations of DMSO up to 1%; cell density monitored over 24 hours; sextuplicate
Description: (§1) In baker's yeast (S. cerevisiae), deletion of the endogenous yeast Rpn11 gene is lethal, but inhibition of Rpn11 deubiquitinating activity is not. Inhibition of Rpn11 activity is lethal only when a second deubiquitinase, UBP6, is deleted (FIG. 2A). Importantly, this synthetic lethal relationship is maintained in yeast harboring hRpn11 (FIG. 3). Thus, a selective inhibitor of human Rpn11 would be lethal in the hRpn11 strain lacking UBP6 (primary screen strain), but nontoxic in a strain containing UBP6 and harboring inactivating point mutations in hRpn11 (counterscreening strain) (FIG. 2B). By measuring cell growth in the presence of potential inhibitors using any commercially available plate reader, a high throughput cell-based screen for compounds selectively inhibiting hRpn11 can be enacted.
(§2) Many high throughput screens include a library of chemical compounds having different solubility in different solvents. A common solvent used to solve this issue is dimethyl sulfoxide (“DMSO”). However, DMSO can be toxic to biological cells. Thus, it is advantageous if the biological cell is resistant to levels of DMSO which are used to dissolve compounds in a library. […]
(§3) In a fourth example, yeast strains were evaluated for tolerance of a commonly used solvent in high throughput screens. […] Cell density was monitored over 24 hours as an indicator of cell growth.

[2] = tested on: primary screen strain (yeast with hRpn11, UBP6 deleted); assay: DMSO tolerance of the primary screen yeast strain, growth in microtiter plates; assay type: cell-based, Saccharomyces cerevisiae; settings: primary screen strain (FIG. 4A); concentrations of DMSO up to 1%; cell density monitored over 24 hours; sextuplicate
Description: as §1, §2, §3

C[S+](C)[O-] [DMSO, dimethylsulfoxide]
differences in growth rate, time to saturation, or saturation cell density [1]: No statistical differences | differences in growth rate, time to saturation, or saturation cell density [2]: No statistical differences
